≈ marks a conversion by molar mass, not a printed value.
Test: Solubility of each monomer in chlorobenzene at room temperature
Format: physicochemical
Text: The term “solubility of the unit” as used herein means measurement of the solubility in a solution of each unit monomer at room temperature.

Brc1ccc(-c2ccc(-c3ccc(Br)s3)c3nsnc23)s1
Solubility: 5000 µg/mL (≈ 10.9 mM)

Source: patent publication US9748489B2, “Copolymer and organic solar cell comprising same” (LG CHEM, LTD., priority 2013, dated 2017)
